The subject of experiment [1] is spontaneously hypertensive rats (SHR). Put plainly: Measurement of blood pressure by the tail-cuff method after a single oral dose. As to conditions: captopril 50 mg kg^−1 bw oral single dose, mean ± SEM, n = 6. Format: in vivo, rat. How it is done: Male SHR (17–20 weeks old, weighing 350–400 g) were obtained from Charles River Laboratories España S.A. (Barcelona, Spain). The animals were singly housed in animal quarters at 22 °C with a 12 h light–dark period. They were fed with a standard diet based on chow Panlab A04 (Panlab, Barcelona, Spain) and had access to tap water ad libitum.
The SBP and DBP in the animals were measured using the tail‐cuff method 23 with a noninvasive BP system model (Letica, Hospitalet, Barcelona, Spain). The rats were given a single dose of 10 mg kg^−1 body weight (bw) of the synthesized peptides, including VGKPGARAPMY, QVGPLIGRYCG, AVFQHNCQE, LSGPVKF, or AVKILP, dissolved in tap water in a total volume of 1.5 mL. Peptides were administered to the SHR by gastric […] through an acute administration between 9 and 10 in the morning.
Positive control rats received 50 mg kg^−1 bw of captopril, a known ACE‐inhibitor, also dissolved in 1.5 mL of tap water, and the negative control rats received 1.5 mL of tap water. SBP was measured in the rats before peptide administration as well as 2, 4, 6, 8, and 24 h post‐administration. […] The changes in SBP and DBP were expressed as the differences in these variables before and after the administration of the different peptides. […]
Differences between treatments were analyzed by two‐way analysis of variance (two‐way ANOVA). […] Outliers were determined using Grubbs’ test. […]

The target of experiment [2] is T1, ACE (angiotensin I‐converting enzyme, EC 3.4.15.1) (Oryctolagus cuniculus, UniProt P12822).
T1 sequence (P12822 34-1310): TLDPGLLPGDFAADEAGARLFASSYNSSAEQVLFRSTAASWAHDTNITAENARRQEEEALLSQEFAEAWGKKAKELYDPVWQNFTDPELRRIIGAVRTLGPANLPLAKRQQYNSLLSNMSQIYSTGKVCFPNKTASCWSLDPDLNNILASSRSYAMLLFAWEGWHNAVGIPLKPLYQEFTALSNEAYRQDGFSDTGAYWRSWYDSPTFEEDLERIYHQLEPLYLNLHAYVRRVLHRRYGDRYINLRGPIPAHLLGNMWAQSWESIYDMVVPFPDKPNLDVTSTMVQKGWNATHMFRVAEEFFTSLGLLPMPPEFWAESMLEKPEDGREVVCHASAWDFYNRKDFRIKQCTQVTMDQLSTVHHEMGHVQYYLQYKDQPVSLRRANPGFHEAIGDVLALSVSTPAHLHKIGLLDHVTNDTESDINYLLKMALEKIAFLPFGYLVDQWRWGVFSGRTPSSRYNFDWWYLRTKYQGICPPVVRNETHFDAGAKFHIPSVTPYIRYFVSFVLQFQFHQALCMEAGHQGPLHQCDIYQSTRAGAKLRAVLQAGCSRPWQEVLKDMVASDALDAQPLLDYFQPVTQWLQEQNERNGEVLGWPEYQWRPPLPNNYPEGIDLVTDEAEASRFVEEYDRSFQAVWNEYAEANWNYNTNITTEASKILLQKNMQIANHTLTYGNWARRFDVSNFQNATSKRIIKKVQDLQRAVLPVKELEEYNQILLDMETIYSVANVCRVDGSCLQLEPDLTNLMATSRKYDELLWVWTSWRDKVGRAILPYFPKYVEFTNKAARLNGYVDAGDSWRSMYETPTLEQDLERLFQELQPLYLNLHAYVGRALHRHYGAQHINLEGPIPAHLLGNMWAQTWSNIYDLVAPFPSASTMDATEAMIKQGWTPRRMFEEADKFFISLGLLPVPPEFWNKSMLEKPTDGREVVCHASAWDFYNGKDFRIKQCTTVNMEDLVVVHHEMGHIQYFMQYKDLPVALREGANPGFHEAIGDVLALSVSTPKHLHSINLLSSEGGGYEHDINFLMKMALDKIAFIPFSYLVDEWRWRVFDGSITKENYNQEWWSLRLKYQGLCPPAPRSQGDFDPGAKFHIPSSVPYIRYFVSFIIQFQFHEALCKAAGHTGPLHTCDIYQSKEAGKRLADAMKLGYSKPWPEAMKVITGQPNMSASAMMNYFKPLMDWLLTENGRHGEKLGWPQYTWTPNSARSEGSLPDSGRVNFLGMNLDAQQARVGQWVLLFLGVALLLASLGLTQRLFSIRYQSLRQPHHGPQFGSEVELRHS
Put plainly: ACEI activity, fluorimetric assay with o-Abz-Gly-p-Phe(NO2)-Pro-OH. Format: biochemical. As to conditions: synthetic peptides; concentration of peptide needed to inhibit 50 % of the original ACE activity. From the text:
Chicken feet (Gallus gallus domesticus) were provided by a local farm (Granja Gaià, La Riera de Gaià, Spain). Protamex solutions (EC 3.4.21.62 and 3.4.24.28, 1.5 AU g^−1 from Bacillus licheniformis and Bacillus amyloliquefaciens) were kindly provided by Novozymes (Bagsværd, Denmark). ACE (angiotensin I‐converting enzyme, EC 3.4.15.1) was purchased from Sigma‐Aldrich (Madrid, Spain), captopril (PubChem CID: 44093) was purchased from Santa Cruz Biotechnology (Dallas, TX, USA) and o‐aminobenzoylglicil‐p‐nitrofenilalanilprolina (o‐Abz‐Gly‐p‐Phe(NO2)‐Pro‐OH) was provided by Bachem Feinchemikalien (Bubendorf, Switzerland). The synthesized peptides (LSETVV, LSGPVKF, AVKILP, VRWEPAPGPV, VGKPGARAPMY, QVGPLIGRYCG, LGIHPDWQFV, and AVFQHNCQE, purity grade ≥ 90 %) were purchased from Caslo Laboratory ApS (Kongens Lyngby, Denmark). Acetonitrile and trifluoroacetic acid were purchased from Sigma‐Aldrich. All other chemical solvents used were of analytical grade.
ACEI activity was measured according to Mas‐Capdevila et al.21 The fluorescence measurements were performed after 30 min in a multiscan microplate fluorimeter (FLUOstar optima, BMG Labtech, Offeuburg, Germany). The excitation and emission wavelengths were 360 and 400 nm, respectively. The software used to process the data was FLUOstar control (version 1.32 R2, BMG Labtech).
A nonlinear fit was performed on the experimental data to calculate the 50 % inhibitory concentration values (IC50) with the PRISM version 4.02 program for Windows (GraphPad Software, Inc. San Diego, CA, USA). ACEI activity was expressed as a percentage (%) or IC50 (µg µL^−1 solution). The determination of the ACEI activity of the samples was performed at least in duplicate. Data are represented as a mean value ± standard deviation (SD).
Protein content was determined by the bicinchoninic acid method using the standard Pierce BCA Protein Assay (ThermoFisher Scientific). The assay was conducted according to the manufacturer's instructions in a microplate format. A calibration standard curve was prepared with seroalbumin bovine. Determination of the protein content was performed at least in duplicate. The results are expressed as the mean ± SD.

Experiment [3] deals with ACE. More on the design: method as in earlier work. Particulars: read-out: ACEI activity IC50 of fermented milk-derived peptides; cited from earlier work.

pIC50: −log10 of the molar value. Ends that are not written are not given here.

Broadly, the pIC50 is −log10 of the IC50, conventionally taken in molar units.

For the molecule `C[C@H](CS)C(=O)N1CCC[C@H]1C(=O)O` [captopril], in experiment [1] (4 h post-administration), the “maximum decrease in DBP” value is −32.97 ± 8.80 mmHg. Besides, the “maximum decrease in SBP” value in experiment [1] (6 h post-administration) is given as −33.67 ± 1.94 mmHg. In experiment [2], AVFQHNCQE [AVFQHNCQE] showed a pIC50 of 4.35. Same read-out and setting: to AVKILP [AVKILP] belongs 5.15; to LGIHPDWQFV [LGIHPDWQFV], < 3.86. As to “LHLPLP [known antihypertensive fermented milk-derived peptide]”, the pIC50 in experiment [3] was 5.26. Consider LSGPVKF [LSGPVKF], for which, in experiment [2], the pIC50 was 4.09. Same read-out and setting: to QVGPLIGRYCG [QVGPLIGRYCG] belongs 4.96; to VRWEPAPGPV [VRWEPAPGPV], < 3.82.

These data come from article PMC6617776, “Novel Antihypertensive Peptides Derived from Chicken Foot Proteins” (Molecular Nutrition & Food Research, 2019).
